Where two headings read alike, the source gives them in different places.
Key:
[1] = biological target: μ (MOR) receptor (Homo sapiens (Human), UniProt P35372); assay: Inhibitory constant at μ opioid receptor (MOR); assay type: binding
[2] = biological target: δ (DOR) receptor (Homo sapiens (Human), UniProt P41143); assay: Inhibitory constant at δ opioid receptor (DOR); assay type: binding
[3] = biological target: MOR (ProLink tagged MOR-PK1 / β-arrestin-2) (Homo sapiens (Human), UniProt P35372); assay: β-arrestin recruitment, PathHunter enzyme complementation assay (DiscoverX); assay type: cell-based; conditions: for MOR activation, β-arrestin recruitment Emax: HEK-293 cells, normalized to maximum effect of DAMGO (100%); for Emax: HEK293, read-out: MOR activation, β-arrestin recruitment Emax
Experimental: (§1) β-Arrestin recruitment was measured by using the PathHunter enzyme complementation assay (DiscoverX, Birmingham, U.K.) as described in the manufacturer's protocol. […] After 24 h cells were transferred into white clear bottom 384-well plates (5000 cells/well) (Greiner Bio-One) and maintained for further 24 h at 37° C., 5% CO2. Test compounds were incubated with the cells in a range from 0.01 nM to 1 μM dissolved in PBS for 90 min at 37° C. Arrestin recruitment was stopped by addition of detection mix for 60 min at room temperature. Chemiluminescence was determined using a Clariostar plate reader. Data analysis was done by nonlinear regression using the algorithms for log(agonist) vs. response of PRISM 6.0 (GraphPad, San Diego, Calif.). […] For testing the arrestin recruitment in the presence of GRK proteins cells were cotransfected with ProLink tagged MOR-PK1 and GRK2 at equal quantities.

[4] = biological target: human μOR (Homo sapiens (Human), UniProt P35372); assay: cell-based
Experimental: Determination of functional activity of selected embodiments was performed using a BRET-based cAMP accumulation assay. […] After 24 hrs of transfection cells were seeded into white half-area 96-well plates at a density of 10000 cells/well and grown for further 24 hrs. On the day of measurement, medium was removed and replaced by Phosphate Buffered Saline (PBS) and cells were serum starved for 1 hr before treatment with ligands. Cells were preincubated with coelenterazine h (Progmega, Mannheim, Germany) for 5 min at a final concentration of 5 μM before adding forskolin (final concentration 10 μM) to start cAMP accumulation. Immediately after adding forskolin, a series of concentrations of test compounds were added to the cells. After incubating the microplates for 15 min at 37° C. BRET, measurement was performed using a Clariostar plate reader (BMG LabTech, Ortenberg, Germany).

[5] = biological target: MOR (ProLink tagged MOR-PK1 cotransfected with GRK2 / β-arrestin-2) (Homo sapiens (Human), UniProt P35372); assay: β-arrestin recruitment in the presence of GRK2, PathHunter assay; assay type: cell-based; conditions: for MOR activation, β-arrestin recruitment (+GRK2) Emax: HEK-293 cells cotransfected with GRK2; for EC50: MOR activation, β-arrestin recruitment (+GRK2) EC50, HEK-293 cells cotransfected with GRK2
Experimental: as §1

[6] = Example 1, read-out: MOR: cAMP BRET: EC50
[7] = HEK-293T cells, forskolin 10 μM, mean of three to ten experiments, read-out: MOR activation, cAMP accumulation EC50
[8] = normalized to maximum effect of DAMGO (100%)

Sequence of δ (DOR) receptor (P41143 whole entry, looked up): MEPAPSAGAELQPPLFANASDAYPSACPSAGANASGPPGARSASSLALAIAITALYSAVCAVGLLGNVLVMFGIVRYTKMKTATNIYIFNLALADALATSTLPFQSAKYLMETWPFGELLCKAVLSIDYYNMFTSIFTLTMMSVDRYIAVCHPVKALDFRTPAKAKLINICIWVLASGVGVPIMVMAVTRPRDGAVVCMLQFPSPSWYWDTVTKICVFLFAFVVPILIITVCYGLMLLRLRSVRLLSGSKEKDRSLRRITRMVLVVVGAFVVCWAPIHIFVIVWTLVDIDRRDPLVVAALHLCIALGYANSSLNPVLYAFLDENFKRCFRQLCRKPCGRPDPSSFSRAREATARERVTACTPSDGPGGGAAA

| Structure (SMILES) | Ki [1] [nM] | Ki [2] [nM] | MOR activation, β-arrestin recruitment Emax [3] [%] | MOR activation, cAMP accumulation Emax [4] [%] | MOR: cAMP BRET: Emax ([4]; Example 1) [%] | EC50 [4, 6] [nM] | EC50 [4, 7] [nM] | MOR activation, β-arrestin recruitment (+GRK2) Emax [5, 8] [%] | Emax [3] [%] | EC50 [5] [nM] | Emax ([4]; Example 1, read-out: MOR: cAMP BRET: Emax) [%] | Emax ([4]; HEK-293T, read-out: MOR activation, cAMP accumulation Emax) [%] | Emax ([5]; HEK293, read-out: MOR activation, β-arrestin recruitment (+GRK2) Emax, HEK-293 cells cotransfected with GRK2, normalized to maximum effect of DAMGO (100%)) [%] | MOR: Arrestin DiscoverX ([3]; Example 1) |
| --- | --- | --- | --- | --- | --- | --- | --- | --- | --- | --- | --- | --- | --- | --- |
| C[C@@H](Cc1ccsc1)NC(=O)NCC1(N(C)C)CCc2ccccc2C1 (single isomer, unassigned) [DD 262 P1] | 2600 | 14000 |  |  |  |  |  |  |  |  |  |  |  |  |
| C[C@@H](Cc1ccsc1)NC(=O)NCC1(N(C)C)CCc2ccccc2C1 (single isomer, unassigned) [DD 262 P2] | 1300 | 7400 |  |  |  |  |  |  |  |  |  |  |  |  |
| C[C@@H](Cc1ccsc1)NC(=O)NCC1(N(C)C)CCc2cc(O)ccc2C1 (single isomer, unassigned) [DD 272A] | 140 | 1800 | <3 | 75 | 108 | 136 | 24 | <3 |  |  |  |  |  |  |
| C[C@@H](Cc1ccsc1)NC(=O)NCC1(N(C)C)CCc2cc(O)ccc2C1 (single isomer, unassigned) [DD 272B] | 57 | 840 |  | 98 | 50 | 1.6 | 1.5 | 7 | < 3 | 450 |  |  |  |  |
| C[C@@H](Cc1ccsc1)NC(=O)NCC1(N(C)C)Cc2ccc(O)cc2C1 (single isomer, unassigned) [DD 297A] | 5.9 | 68 |  |  |  | 1.8 | 1.2 |  | < 3 | 42 | 80 | 80 | 13 |  |
| C[C@@H](Cc1ccsc1)NC(=O)NCC1(N(C)C)Cc2ccc(O)cc2C1 (single isomer, unassigned) [DD 297B] | 190 | 2000 | <3 | 73 | 65 | 12.5 | 13 | 7 |  | 670 |  |  |  |  |
| C[C@@H](Cc1ccsc1)NC(=O)NCC1(N(C)C)Cc2ccccc2C1 [DD 277, (S)-1-((2-(dimethylamino)-2,3-dihydro-1H-inden-2-yl)methyl)-3-(1-(thiophen-3-yl)propan-2-yl)urea] | 500 | 8400 |  |  |  |  |  |  |  |  |  |  |  |  |
| C[C@@H](Cc1ccsc1)NC(=O)NCC1(N(C)C)Cc2ccc(O)cc2C1 (stereo partly drawn) [DD 297A, 1-((2-(dimethylamino)-5-hydroxy-2,3-dihydro-1H-inden-2-yl)methyl)-3-((S)-1-(thiophen-3-yl)propan-2-yl)urea] |  |  |  |  |  |  |  |  |  |  |  |  |  | no significant activity |

Reference: patent publication US10780078B2, “Mu opioid receptor modulators” (THE REGENTS OF THE UNIVERSITY OF CALIFORNIA, priority 2017, dated 2020)
